In US8546377B2 (AbbVie Inc., priority 2009, dated 2013):

Target: T1, h-5-HT6 receptor (Homo sapiens, UniProt P50406)
T1 construct: expressed in transfected cells; host or cells: HEK293 cells (membrane preparation)
Experiment: Human 5-HT6 receptor radioligand binding assay ([3H]-LSD, HEK293 membranes)
Conditions: HEK293 membranes, 1 nM [3H]-lysergic acid diethylamide, 3.5 hours at room temperature; read-out: Ki (μM), 5-HT6 Agonist Site Radioligand Binding
Method: (iv) Human 5-HT6 Receptor Radioligand Binding Assay
Preparation of Membranes by Ultrasonic Treatment and Differential Centrifugation
Cells from stable clonal cell lines expressing the corresponding receptor (5-HT6) were washed with PBS (without Ca^++, Mg^++) and harvested in PBS with 0.02% EDTA. The cells were collected by centrifugation at 500 g for 10 minutes at 4° C., washed with PBS and centrifuged (500 g, 10 minutes at 4° C.). The pellets were stored at −80° C. until use. For membrane preparation, the thawed cell pellet was resuspended in ice-cold sucrose buffer (0.25 M sucrose, 10 mM HEPES (pH 7.4), 1 mM phenylmethylsulfonyl fluoride (PMSF) in DMSO, 5 μg/ml Pepstatin-A, 3 mM EDTA, 0.025% Bacitracin) and homogenized with a Branson Sonifier W-250 (Settings: Timer 4; Output Control 3; Duty Cycle constant; 2 to 3 cycles). Cell disruption was checked with the aid of a microscope. Remaining unbroken cells were pelleted at 1,000 g for 10 minutes at 4° C. The sucrose buffer supernatant was then centrifuged at 60,000 g for 1 hour at 4° C. (Beckman Ultrazentrifuge XL 80). The pellet was resuspended in 30 mL of ice-cold Tris buffer (20 mM TRIS (pH 7.4), 5 μg/mL Pepstatin A, 0.1 mM PMSF, 3 mM EDTA) by pipetting through a 10 mL serological pipet and centrifuged for 1 hour at 4° C. at 60,000 g. A final resuspension was performed in a small volume of ice-cold Tris buffer (see above) by pressing through a serological pipet followed by ultrasonic treatment with a Branson Sonifier W-250 (Settings: Timer 1; Output Control 3; Duty Cycle constant; 1 cycle). Protein concentration was determined (BCA-Kit; Pierce) and aliquots stored at −80° C. or in liquid nitrogen for long-term storage.
Receptor Binding Experiments
All receptor binding experiments were carried out in the corresponding assay buffer in a total volume of 200 μL in the presence of various concentrations of test compound (10^−5 M to 10^−9 M, tenfold serial dilution, duplicate determinations). The assays were terminated by filtration on polyethylenimine (PEI 0.1% or 0.3%) presoaked Packard Unifilter Plates (GF/C or GF/B) with a Tomtec MachIII U 96 well-plate harvester. After the plates had been dried for 2 hours at 55° C. in a drying chamber scintillation cocktail (BetaPlate Scint; PerkinElmer) was added. Radioactivity was measured in a Microbeta Trilux two hours after the addition of the scintillation mixture.
5-HT6 Receptor Binding Assay
HEK293 cells stably expressing the h-5-HT6 receptor (NCBI Reference Sequence XM 001435) were cultured in RPMI1640 medium supplemented with 25 mM HEPES, 10% fetal calf serum and 1-2 mM glutamine. The membrane preparation was performed as described above. […] On the day of the assay, the membranes were thawed, diluted in assay buffer (50 mM Tris-HCl, 5 mM CaCl2, 0.1% ascorbic acid, 10 μM pargyline, pH 7.4) to a concentration of 8 μg protein/assay and homogenized by gentle vortexing. […] Non-specific binding was defined with 1 μM methiothepin. The binding reaction was carried out for 3.5 hours at room temperature. During the incubation, the plates were shaken on a plate shaker at 100 rpm and terminated by filtration on Packard Unifilter GF/C (0.1% PEI) plates, followed by 2 wash cycles with ice-cold 50 mM Tris-HCl, 5 mM CaCl2.
Data derived from liquid scintillation counting were analyzed by iterative non-linear regression analysis with the use of the Statistical Analysis System (SAS): a program similar to “LIGAND” as described by Munson and Rodbard (Anal. Biochem. 1980, 107, 220-239). Fitting was performed according to formulae described by Feldman (Anal. Biochem. 1972, 48, 317-338). IC50, nH and Ki values were expressed as geometrical mean.
The results of the receptor binding studies are expressed as receptor binding constants Ki(5-HT6) as described herein before, and given in Table 5.

T1 sequence (P50406 whole entry): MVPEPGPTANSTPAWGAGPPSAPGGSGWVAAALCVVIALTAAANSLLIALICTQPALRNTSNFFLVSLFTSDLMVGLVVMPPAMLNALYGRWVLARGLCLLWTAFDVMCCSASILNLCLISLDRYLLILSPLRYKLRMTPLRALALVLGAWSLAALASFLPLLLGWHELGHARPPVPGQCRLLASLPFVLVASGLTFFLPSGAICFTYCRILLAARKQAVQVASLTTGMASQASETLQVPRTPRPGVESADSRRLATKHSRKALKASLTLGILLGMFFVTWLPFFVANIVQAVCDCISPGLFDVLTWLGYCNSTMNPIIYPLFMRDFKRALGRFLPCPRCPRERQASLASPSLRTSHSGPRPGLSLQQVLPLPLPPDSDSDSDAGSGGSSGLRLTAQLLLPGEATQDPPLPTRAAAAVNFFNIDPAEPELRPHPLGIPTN

Row | SMILES | Ki [µM]
1 | O=C1CC2CNCCN2c2ccc(NS(=O)(=O)c3ccccc3-c3ccccc3)cc2N1 (stereo not shown) [Example 97, N-(6-oxo-1,2,3,4,4a,5,6,7-octahydropyrazino[1,2-a][1,5]benzodiazepin-9-yl)biphenyl-2-sulfonamide] | 0.0024
2 | Cc1ccccc1S(=O)(=O)Nc1ccc2c(c1)NC(=O)CC1CNCCN21 (stereo not shown) [Example 98, 2-methyl-N-(6-oxo-1,2,3,4,4a,5,6,7-octahydropyrazino[1,2-a][1,5]benzodiazepin-9-yl)benzenesulfonamide] | 0.0224
3 | Cc1ccc(S(=O)(=O)Nc2ccc3c(c2)NC(=O)CC2CNCCN32)cc1 (stereo not shown) [Example 99, 4-methyl-N-(6-oxo-1,2,3,4,4a,5,6,7-octahydropyrazino[1,2-a][1,5]benzodiazepin-9-yl)benzenesulfonamide] | 0.0221
4 | Cc1cccc(S(=O)(=O)Nc2ccc3c(c2)NC(=O)CC2CNCCN32)c1 (stereo not shown) [Example 100, 3-methyl-N-(6-oxo-1,2,3,4,4a,5,6,7-octahydropyrazino[1,2-a][1,5]benzodiazepin-9-yl)benzenesulfonamide] | 0.0475
5 | O=C1CC2CNCCN2c2ccc(NS(=O)(=O)c3cccc(Cl)c3)cc2N1 (stereo not shown) [Example 101, 3-chloro-N-(6-oxo-1,2,3,4,4a,5,6,7-octahydropyrazino[1,2-a][1,5]benzodiazepin-9-yl)benzenesulfonamide] | 0.0223
6 | O=C1CC2CNCCN2c2ccc(NS(=O)(=O)c3ccc(Cl)cc3)cc2N1 (stereo not shown) [Example 102, 4-chloro-N-(6-oxo-1,2,3,4,4a,5,6,7-octahydropyrazino[1,2-a][1,5]benzodiazepin-9-yl)benzenesulfonamide] | 0.0092
7 | O=C1CC2CNCCN2c2ccc(NS(=O)(=O)c3ccccc3F)cc2N1 (stereo not shown) [Example 103, 2-fluoro-N-(6-oxo-1,2,3,4,4a,5,6,7-octahydropyrazino[1,2-a][1,5]benzodiazepin-9-yl)benzenesulfonamide] | 0.0299
8 | O=C1CC2CNCCN2c2ccc(NS(=O)(=O)c3cccc(F)c3)cc2N1 (stereo not shown) [Example 104, 3-fluoro-N-(6-oxo-1,2,3,4,4a,5,6,7-octahydropyrazino[1,2-a][1,5]benzodiazepin-9-yl)benzenesulfonamide] | 0.0596
9 | O=C1CC2CNCCN2c2ccc(NS(=O)(=O)c3ccc(F)cc3)cc2N1 (stereo not shown) [Example 105, 4-fluoro-N-(6-oxo-1,2,3,4,4a,5,6,7-octahydropyrazino[1,2-a][1,5]benzodiazepin-9-yl)benzenesulfonamide] | 0.0208
10 | COc1ccccc1S(=O)(=O)Nc1ccc2c(c1)NC(=O)CC1CNCCN21 (stereo not shown) [Example 106, 2-methoxy-N-(6-oxo-1,2,3,4,4a,5,6,7-octahydropyrazino[1,2-a][1,5]benzodiazepin-9-yl)benzenesulfonamide] | 0.026
11 | COc1cccc(S(=O)(=O)Nc2ccc3c(c2)NC(=O)CC2CNCCN32)c1 (stereo not shown) [Example 107, 3-methoxy-N-(6-oxo-1,2,3,4,4a,5,6,7-octahydropyrazino[1,2-a][1,5]benzodiazepin-9-yl)benzenesulfonamide] | 0.022
12 | COc1ccc(S(=O)(=O)Nc2ccc3c(c2)NC(=O)CC2CNCCN32)cc1 (stereo not shown) [Example 108, 4-methoxy-N-(6-oxo-1,2,3,4,4a,5,6,7-octahydropyrazino[1,2-a][1,5]benzodiazepin-9-yl)benzenesulfonamide] | 0.0669
13 | O=C1CC2CNCCN2c2ccc(NS(=O)(=O)c3cccs3)cc2N1 (stereo not shown) [Example 109, N-(6-oxo-1,2,3,4,4a,5,6,7-octahydropyrazino[1,2-a][1,5]benzodiazepin-9-yl)thiophene-2-sulfonamide] | 0.0556
14 | O=C1CC2CNCCN2c2ccc(NS(=O)(=O)c3c(Cl)cccc3Cl)cc2N1 (stereo not shown) [Example 119, 2,6-dichloro-N-(6-oxo-1,2,3,4,4a,5,6,7-octahydropyrazino[1,2-a][1,5]benzodiazepin-9-yl)benzenesulfonamide] | 0.0378
15 | O=C1CC2CNCCN2c2ccc(NS(=O)(=O)c3cccc(OC(F)(F)F)c3)cc2N1 (stereo not shown) [Example 120, N-(6-oxo-1,2,3,4,4a,5,6,7-octahydropyrazino[1,2-a][1,5]benzodiazepin-9-yl)-3-(trifluoromethoxy)benzenesulfonamide] | 0.0183
16 | N#Cc1ccc(S(=O)(=O)Nc2ccc3c(c2)NC(=O)CC2CNCCN32)cc1 (stereo not shown) [Example 121, 4-cyano-N-(6-oxo-1,2,3,4,4a,5,6,7-octahydropyrazino[1,2-a][1,5]benzodiazepin-9-yl)benzenesulfonamide] | 0.621
17 | N#Cc1cccc(S(=O)(=O)Nc2ccc3c(c2)NC(=O)CC2CNCCN32)c1 (stereo not shown) [Example 122, 3-cyano-N-(6-oxo-1,2,3,4,4a,5,6,7-octahydropyrazino[1,2-a][1,5]benzodiazepin-9-yl)benzenesulfonamide] | 0.19
18 | O=C1CC2CNCCN2c2ccc(NS(=O)(=O)c3c(F)cccc3F)cc2N1 (stereo not shown) [Example 123, 2,6-difluoro-N-(6-oxo-1,2,3,4,4a,5,6,7-octahydropyrazino[1,2-a][1,5]benzodiazepin-9-yl)benzenesulfonamide] | 0.0583
19 | O=C1CC2CNCCN2c2ccc(NS(=O)(=O)c3cccc4ccccc34)cc2N1 (stereo not shown) [Example 124, N-(6-oxo-1,2,3,4,4a,5,6,7-octahydropyrazino[1,2-a][1,5]benzodiazepin-9-yl)napthalene-1-sulfonamide] | 0.0068
20 | Cc1ccc(C)c(S(=O)(=O)Nc2ccc3c(c2)NC(=O)CC2CNCCN32)c1 (stereo not shown) [Example 125, 2,5-dimethyl-N-(6-oxo-1,2,3,4,4a,5,6,7-octahydropyrazino[1,2-a][1,5]benzodiazepin-9-yl)benzenesulfonamide] | 0.0156
21 | O=C1CC2CNCCN2c2ccc(NS(=O)(=O)c3ccccc3C(F)(F)F)cc2N1 (stereo not shown) [Example 126, N-(6-oxo-1,2,3,4,4a,5,6,7-octahydropyrazino[1,2-a][1,5]benzodiazepin-9-yl)-2-(trifluoromethyl)benzenesulfonamide] | 0.0234
22 | O=C1CC2CNCCN2c2ccc(NS(=O)(=O)c3ccc(Cl)s3)cc2N1 (stereo not shown) [Example 127, 5-chloro-N-(6-oxo-1,2,3,4,4a,5,6,7-octahydropyrazino[1,2-a][1,5]benzodiazepin-9-yl)thiophene-2-sulfonamide] | 0.0443
23 | O=C1CC2CNCCN2c2ccc(NS(=O)(=O)c3ccc4ccccc4c3)cc2N1 (stereo not shown) [Example 128, N-(6-oxo-1,2,3,4,4a,5,6,7-octahydropyrazino[1,2-a][1,5]benzodiazepin-9-yl)naphthalene-2-sulfonamide] | 0.0043
24 | Cc1cc(C)cc(S(=O)(=O)Nc2ccc3c(c2)NC(=O)CC2CNCCN32)c1 (stereo not shown) [Example 129, 3,5-dimethyl-N-(6-oxo-1,2,3,4,4a,5,6,7-octahydropyrazino[1,2-a][1,5]benzodiazepin-9-yl)benzenesulfonamide] | 0.0132
25 | O=C1CC2CNCCN2c2ccc(NS(=O)(=O)c3ccccc3OC(F)(F)F)cc2N1 (stereo not shown) [Example 130, N-(6-oxo-1,2,3,4,4a,5,6,7-octahydropyrazino[1,2-a][1,5]benzodiazepin-9-yl)-2-(trifluoromethoxy)benzenesulfonamide] | 0.0181
